The text below walks through data of ChEMBL document CHEMBL1139370, “Discovery of 1-[9-(4-chlorophenyl)-8-(2-chlorophenyl)-9H-purin-6-yl]-4-ethylaminopiperidine-4-carboxylic acid amide hydrochloride (CP-945,598), a novel, potent, and selective cannabinoid type 1 receptor antagonist” (J Med Chem, 2009).

The structures appear in SMILES notation. Activity calls are given as the source filed them. The calls are words filed in the database; no cut-off is given here. Where only a bound is given, the exact number is not on record here.

Data set [1] can be described thus: Metabolic stability in rat liver microsomes assessed as intrinsic clearance. Type of data set: ADME, Microsome. (Liver microsomes are vesicles of endoplasmic reticulum, rich in cytochrome P450 enzymes.)
For data set [2], the system named is Mus musculus. In words: Reversal of CP-55940-induced analgesia in ICR mouse at 10 mg/kg, sc pretreated 15 mins before CP-55940 challenge measured 45 mins post challenge by hot plate method. The note with it: route subcutaneous. Type of data set: functional. (In general: In hot-plate and tail-flick tests a longer latency is read as antinociception.)
In data set [3] the target is T1, Cannabinoid receptor 1 (Homo sapiens, UniProt P21554). Description: Antagonist activity against human CB1 receptor expressed in CHO-K1 cells by [35S]GTPgamma binding assay. Type of data set: functional, cell-based.
In data set [4] the test system is Mus musculus. Description: Reversal of CP-55940-induced hypothermia in ICR mouse at 10 mg/kg, sc pretreated 15 mins before CP-55940 challenge measured 65 mins post challenge. Type of data set: functional. The settings on record: route subcutaneous.
A short description of data set [5]: Metabolic stability in human liver microsomes assessed as intrinsic clearance. Type of data set: ADME, Microsome.
The next data set deals with Rattus norvegicus. Description: Anorectic activity in Sprague-Dawley rat assessed as reduction in food intake at 10 mg/kg, po measured at 10 mins interval for 2 hrs by fast-induced refeeding assay relative to control. Type of data set: functional. Set-up: scale not given: the % may be the effect or the level left.
A short description of data set [6]: Thermodynamic solubility in 0.1 M phosphate buffered saline at pH 6.5 by reversed phase HPLC. Type of data set: physicochemical. The note with it: buffer.
Data set [7] can be described thus: Lipophilicity, log D of the compound. Type of data set: physicochemical. The settings on record: octanol/water.
The nature of data set [8]: Thermodynamic solubility in USP simulated gastric fluid at pH 1.2 by reversed phase HPLC. Type of data set: physicochemical. The settings on record: simulated gi fluid.
Data set [9] deals with Voltage-gated inwardly rectifying potassium channel KCNH2 (Homo sapiens, UniProt Q12809). Description: Inhibition of human ERG.
The target in data set [10] is T1, Cannabinoid receptor 1. Description: biochemical. Type of data set: cell-based, HEK293.
The target in data set [11] is Cannabinoid receptor 1 (Rattus norvegicus, UniProt P20272). In words: Displacement of [3H]SR141716A from CB1 receptor in rat brain. Type of data set: tissue-based.
The subject of data set [12] is Mus musculus. Description: Reversal of CP-55940-induced locomotor activity in ICR mouse at 10 mg/kg, sc pretreated 15 mins before CP-55940 challenge measured 25 mins post challenge. Details: dose 10 mg/kg. Type of data set: functional, organism-based.
Data set [13] in a line: Induction of P-gp-mediated efflux in mdr1a/1b knockout mouse model.
Data set [14] can be described thus: Inhibition of P-gp assessed as ATP turnover at […] by cell-based ATPase assay.
Data set [15] has as its system Mus musculus. Description: Reversal of CP-55940-induced catalepsy in ICR mouse at 10 mg/kg, sc pretreated 15 mins before CP-55940 challenge measured 90 mins post challenge. Type of data set: functional, organism-based. Set-up: dose 10 mg/kg.
Data set [16] is described as follows: Inhibition of P-gp by cell-based calcein-acetoxymethyl ester assay.

Voltage-gated inwardly rectifying potassium channel KCNH2, sequence (Q12809 whole entry): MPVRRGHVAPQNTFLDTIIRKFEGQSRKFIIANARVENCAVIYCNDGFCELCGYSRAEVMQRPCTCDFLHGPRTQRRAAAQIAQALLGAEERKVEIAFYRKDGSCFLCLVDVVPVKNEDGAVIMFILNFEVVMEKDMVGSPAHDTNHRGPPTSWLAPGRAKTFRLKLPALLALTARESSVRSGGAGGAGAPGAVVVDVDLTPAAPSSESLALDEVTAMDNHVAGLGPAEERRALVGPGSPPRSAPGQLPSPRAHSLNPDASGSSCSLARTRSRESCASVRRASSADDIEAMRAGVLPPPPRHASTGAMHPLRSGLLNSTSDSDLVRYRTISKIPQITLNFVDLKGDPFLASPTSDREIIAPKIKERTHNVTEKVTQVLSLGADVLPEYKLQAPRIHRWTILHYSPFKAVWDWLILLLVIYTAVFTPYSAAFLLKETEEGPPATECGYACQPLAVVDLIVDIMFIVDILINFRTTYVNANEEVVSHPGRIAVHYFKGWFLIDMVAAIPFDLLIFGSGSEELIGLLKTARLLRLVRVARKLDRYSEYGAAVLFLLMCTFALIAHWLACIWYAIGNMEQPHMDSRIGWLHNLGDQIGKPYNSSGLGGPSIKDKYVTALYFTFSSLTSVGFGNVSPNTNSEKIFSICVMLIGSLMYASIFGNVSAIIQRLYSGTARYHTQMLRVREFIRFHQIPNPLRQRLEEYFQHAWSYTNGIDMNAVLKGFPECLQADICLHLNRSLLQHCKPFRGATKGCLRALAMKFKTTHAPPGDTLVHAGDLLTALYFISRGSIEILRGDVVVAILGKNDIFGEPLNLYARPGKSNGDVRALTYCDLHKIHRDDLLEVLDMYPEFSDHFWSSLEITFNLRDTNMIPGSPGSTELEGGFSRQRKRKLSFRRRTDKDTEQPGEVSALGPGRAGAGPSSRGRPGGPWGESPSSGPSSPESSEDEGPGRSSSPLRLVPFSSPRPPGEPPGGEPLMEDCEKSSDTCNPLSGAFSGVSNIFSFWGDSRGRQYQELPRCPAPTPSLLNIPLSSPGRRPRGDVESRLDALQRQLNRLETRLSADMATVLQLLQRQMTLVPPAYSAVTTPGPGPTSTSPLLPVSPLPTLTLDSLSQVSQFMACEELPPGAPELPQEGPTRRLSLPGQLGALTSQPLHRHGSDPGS
T1 sequence (P21554 whole entry): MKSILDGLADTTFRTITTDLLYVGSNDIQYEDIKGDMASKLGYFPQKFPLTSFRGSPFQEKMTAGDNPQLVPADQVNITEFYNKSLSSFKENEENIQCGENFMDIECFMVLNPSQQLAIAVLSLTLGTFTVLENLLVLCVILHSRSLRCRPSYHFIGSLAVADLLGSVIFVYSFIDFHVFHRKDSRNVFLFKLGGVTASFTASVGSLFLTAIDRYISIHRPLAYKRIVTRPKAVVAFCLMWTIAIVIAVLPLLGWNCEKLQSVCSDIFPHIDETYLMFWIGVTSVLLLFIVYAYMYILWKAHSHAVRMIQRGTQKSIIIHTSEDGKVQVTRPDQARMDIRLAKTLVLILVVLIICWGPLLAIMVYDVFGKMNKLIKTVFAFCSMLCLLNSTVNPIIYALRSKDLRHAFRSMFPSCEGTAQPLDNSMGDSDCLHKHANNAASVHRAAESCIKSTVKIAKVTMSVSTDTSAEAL
Cannabinoid receptor 1 (Rattus norvegicus, UniProt P20272), sequence (P20272 whole entry): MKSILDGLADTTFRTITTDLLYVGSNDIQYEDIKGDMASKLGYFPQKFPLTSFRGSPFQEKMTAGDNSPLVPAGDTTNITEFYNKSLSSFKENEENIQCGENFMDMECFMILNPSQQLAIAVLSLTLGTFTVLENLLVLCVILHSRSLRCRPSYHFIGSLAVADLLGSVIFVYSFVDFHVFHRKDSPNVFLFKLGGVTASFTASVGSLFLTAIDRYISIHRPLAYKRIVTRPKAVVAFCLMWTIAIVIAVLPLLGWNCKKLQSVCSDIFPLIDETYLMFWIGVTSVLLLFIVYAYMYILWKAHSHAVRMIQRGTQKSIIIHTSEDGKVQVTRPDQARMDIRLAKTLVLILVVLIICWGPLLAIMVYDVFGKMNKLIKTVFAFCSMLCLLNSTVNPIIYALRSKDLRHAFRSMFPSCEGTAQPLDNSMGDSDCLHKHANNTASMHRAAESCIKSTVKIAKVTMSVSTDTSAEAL

By CLint scaled is commonly meant the rate of metabolic loss divided by the concentration. With `Cc1c(C(=O)NN2CCCCC2)nn(-c2ccc(Cl)cc2Cl)c1-c1ccc(Cl)cc1` [RIMONABANT], the CLint scaled in data set [1] came out at 9000 mL/min/kg.

The Ki is the dissociation constant of the complex between target and ligand, obtained from inhibition or displacement. As a reminder, the logD is lipophilicity at a set pH, counting ionised and neutral species. Broadly, the IC50 is the concentration needed to halve the response being measured. Turning to `CN1CCN(c2ncnc3c2nc(-c2ccc(Cl)cc2Cl)n3-c2ccc(Cl)cc2)CC1`, the Activity in the data set with Mus musculus [2] worked out at 74%; in the data set on Mus musculus [4], 4%; with Rattus norvegicus, 25%. Moreover, the Ki at Cannabinoid receptor 1 [3] is 1.5 nM; at Cannabinoid receptor 1 [10] it was 5.2 nM; at Cannabinoid receptor 1 [11], 5.9 nM. For the same compound, the figures for the CLint scaled in data set [1] and in data set [5] were 5900 mL/min/kg and 740 mL/min/kg, respectively. For the same compound, the Thermodynamic solubility in data set [6] is reported as 0.7 ugA/ml; in data set [8], 4930 ugA/ml. In data set [7], the logD was found to be 4.8. In [9], this compound yielded an IC50 of 350 nM.

As for `Clc1ccc(-n2c(-c3ccc(Cl)cc3Cl)nc3c(N4CCCCC4)ncnc32)cc1`, the values for the Activity with Mus musculus [2], with Mus musculus [4] and in the data set with Rattus norvegicus were 72%, 29% and 6%, respectively. Further, the Ki was 1.7 nM on Cannabinoid receptor 1 [3], 6.1 nM on Cannabinoid receptor 1 [10] and 4.2 nM at Cannabinoid receptor 1 [11]. The figures for the CLint scaled in data set [1] and in data set [5] were 77000 mL/min/kg and 28000 mL/min/kg, respectively. Moreover, the Thermodynamic solubility in data set [6] is reported as under 0.1 ugA/ml; in data set [8] it was 3.5 ugA/ml. The logD in data set [7] worked out at 5.9. The compound further registered an IC50 in data set [9] of over 3000 nM.

As for `CCNC1(C(N)=O)CCN(c2ncnc3c2nc(-c2ccccc2Cl)n3-c2ccc(Cl)cc2)CC1` [OTENABANT], the Activity in the data set with Mus musculus [2] turned out to be 85%; in the data set on Mus musculus [4], 73%; with Rattus norvegicus it was 54%. For the same compound, the result (in the data set with Mus musculus [12]; in data set [13]; with Mus musculus [15]) was Active. The values for the CLint scaled in data set [1] and in [5] were 1200 mL/min/kg and 740 mL/min/kg, respectively. In addition, the outcome in data set [14] was inactive. The results for the Thermodynamic solubility in data set [6] and in [8] were 1.3 ugA/ml and 291 ugA/ml, respectively. The values for the half-maximal inhibitory concentration (IC50) in data set [16] and in data set [9] were 15 µM and over 3000 nM, respectively. The compound also had a logD in [7] of 4. The compound further came in with an inhibition constant Ki at Cannabinoid receptor 1 [11] of 2.8 nM.

Take `Clc1ccc(-n2c(-c3ccc(Cl)cc3Cl)nc3c(NN4CCCCC4)ncnc32)cc1`: the Ki at Cannabinoid receptor 1 [3] is 1.7 nM; on Cannabinoid receptor 1 [10], 7.4 nM; at Cannabinoid receptor 1 [11], 3.6 nM. Further, the CLint scaled worked out at 4100 mL/min/kg in data set [1] and 1700 mL/min/kg in data set [5]. Moreover, the Thermodynamic solubility in [6] is on record as 1.4 ugA/ml; in data set [8], 161 ugA/ml. Moreover, the logD in data set [7] worked out at 5.3. Moreover, the IC50 in data set [9] amounted to 2700 nM.

Regarding `Clc1ccc(-n2c(-c3ccccc3Cl)nc3c(N4CCCCC4)ncnc32)cc1`, the Ki at Cannabinoid receptor 1 [3] turned out to be 1.1 nM; at Cannabinoid receptor 1 [10], 2.3 nM; on Cannabinoid receptor 1 [11], 2.1 nM. The results for the CLint scaled in data set [1] and in [5] were 8600 mL/min/kg and 3100 mL/min/kg, respectively. In addition, the results for the Thermodynamic solubility in data set [6] and in [8] were under 0.1 µgA/ml and 8.8 ugA/ml, respectively. The logD in [7] was determined as 5.4.

In the case of `CN1CCN(c2ncnc3c2nc(-c2ccccc2Cl)n3-c2ccc(Cl)cc2)CC1`, the results for the CLint scaled in data set [1] and in data set [5] were 1500 mL/min/kg and 300 mL/min/kg, respectively. The Thermodynamic solubility in [6] is given as 0.33 ugA/ml; in data set [8], 1290 ugA/ml. The logD in [7] stood at 4.1. Moreover, in [9], the IC50 stood at 630 nM. Moreover, the Ki at Cannabinoid receptor 1 [11] was found to be 24 nM.

As for `Clc1ccc(-n2c(-c3ccc(Cl)cc3Cl)nc3c(NC4CCCCC4)ncnc32)cc1`, the Ki worked out at 1.5 nM on Cannabinoid receptor 1 [3], 7.1 nM at Cannabinoid receptor 1 [10] and 12 nM at Cannabinoid receptor 1 [11]. Besides, the figures for the intrinsic metabolic clearance (CLint scaled) in data set [1] and in data set [5] were 24000 mL/min/kg and 28000 mL/min/kg, respectively. Also, the Thermodynamic solubility is under 0.1 ugA/ml in data set [6] and 4.1 ugA/ml in [8]. This compound displayed a logD in data set [7] of 6.3.
